# Source: article PMC9742639, “Inhibition of glycogen synthase kinase-3-beta (GSK3β) blocks nucleocapsid phosphorylation and SARS-CoV-2 replication” (Molecular Biomedicine, 2022)
# Key:
# [1] = test system: SARS-CoV-2 variant BA.1 (omicron); type: cell-based
# [2] = test system: SARS-CoV-2 variant B.1.617.2 (delta); type: cell-based
smiles,measurement,setting,value
CSc1ccc(-n2cnc3ccc(-c4nnc(CCc5cccc(C#N)c5)o4)cc32)cc1 [P-0717632],"effect on viral titres, BA.1",[1],reduced intracellular viral titres
same,"effect on viral titres, B.1.617.2",[2],reduced intracellular viral titres
